Assay results from ChEMBL document CHEMBL3868597, “Modulating amyloid-β aggregation: The effects of peptoid side chain placement and chirality” (Bioorg Med Chem, 2017).
The source made the active and inactive calls. The calls are words filed in the database; no cut-off is given here. Non-standard residues stand in square brackets, D forms with d. Residues, ends and D or L forms follow the SMILES beside them. N(1S-Me-propyl)Gly = CC[C@H](C)NCC(=O)O; Nspe = C[C@H](NCC(=O)O)c1ccccc1; Nphe = O=C(O)CNCc1ccccc1; NPrGly = CCCNCC(=O)O; Nlys = NCCCCNCC(=O)O

How the values were obtained:
[1] = target: Amyloid-beta precursor protein (Homo sapiens) (UniProt P05067); assay: Inhibition of agitated amyloid beta (1 to 40) (unknown origin) aggregation assessed as reduction in fibrillar aggregates at 100 uM by dot blot analysis
Sequence of Amyloid-beta precursor protein (Homo sapiens) (P05067 whole entry): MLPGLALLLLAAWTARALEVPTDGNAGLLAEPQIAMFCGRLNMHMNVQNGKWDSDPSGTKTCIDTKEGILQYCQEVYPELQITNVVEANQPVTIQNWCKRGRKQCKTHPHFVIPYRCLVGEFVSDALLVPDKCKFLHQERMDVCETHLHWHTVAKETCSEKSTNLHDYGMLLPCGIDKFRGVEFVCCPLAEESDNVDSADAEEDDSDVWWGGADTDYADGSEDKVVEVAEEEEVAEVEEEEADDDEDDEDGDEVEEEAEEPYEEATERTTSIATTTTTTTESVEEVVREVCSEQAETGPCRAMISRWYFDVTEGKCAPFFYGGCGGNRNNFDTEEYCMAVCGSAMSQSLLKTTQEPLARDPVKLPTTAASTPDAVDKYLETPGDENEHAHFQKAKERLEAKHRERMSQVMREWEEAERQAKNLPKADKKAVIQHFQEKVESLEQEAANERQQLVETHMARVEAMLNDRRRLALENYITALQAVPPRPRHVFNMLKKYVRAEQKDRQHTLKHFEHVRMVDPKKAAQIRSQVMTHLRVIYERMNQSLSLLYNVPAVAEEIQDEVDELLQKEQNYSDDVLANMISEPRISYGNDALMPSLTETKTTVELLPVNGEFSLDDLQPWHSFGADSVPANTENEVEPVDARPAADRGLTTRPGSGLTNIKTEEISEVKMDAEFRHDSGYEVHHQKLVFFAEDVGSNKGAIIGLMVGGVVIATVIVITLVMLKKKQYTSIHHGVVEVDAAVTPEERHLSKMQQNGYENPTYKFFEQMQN

[2] = target: Amyloid-beta precursor protein (Homo sapiens) (UniProt P05067); assay: Inhibition of amyloid beta (1 to 40) (unknown origin) aggregation assessed as absence of fibrillar branching at equilibrium at 100 uM by uranyl acetate staining based transmission electron microscopic analysis
[3] = target: Amyloid-beta precursor protein (Homo sapiens) (UniProt P05067); assay: Inhibition of amyloid beta (1 to 40) (unknown origin) aggregation assessed as reduction in number aggregates at equilibrium at 100 uM after 24 hrs by uranyl acetate staining based transmission electron microscopic analysis
[4] = target: Amyloid-beta precursor protein (Homo sapiens) (UniProt P05067); assay: Inhibition of amyloid beta (1 to 40) (unknown origin) aggregation assessed as increase in surface hydrophobicity at equilibrium by nile red dye-based spectroscopic analysis
[5] = target: Amyloid-beta precursor protein (Homo sapiens) (UniProt P05067); assay: Inhibition of amyloid beta (1 to 40) (unknown origin) aggregation assessed as circular/bird-nest like aggregate formation at equilibrium at 100 uM after 24 hrs by uranyl acetate staining based transmission electron microscopic analysis
[6] = target: Amyloid-beta precursor protein (Homo sapiens) (UniProt P05067); assay: Inhibition of agitated amyloid beta (1 to 40) (unknown origin) aggregation at 100 uM measured at equilibrium by thioflavin T based fluorometric assay
[7] = target: Amyloid-beta precursor protein (Homo sapiens) (UniProt P05067); assay: Inhibition of agitated amyloid beta (1 to 40) (unknown origin) aggregation assessed as increase in lag time at 100 uM by dot blot analysis relative to control
[8] = target: Amyloid-beta precursor protein (Homo sapiens) (UniProt P05067); assay: Inhibition of agitation-induced amyloid beta (1 to 40) (unknown origin) aggregation assessed as decrease in lag time at 100 uM measured every 30 to 45 mins by dot blot analysis relative to control
[9] = target: Amyloid-beta precursor protein (Homo sapiens) (UniProt P05067); assay: Inhibition of agitation-induced amyloid beta (1 to 40) (unknown origin) aggregation assessed as decrease in lag time at 100 uM by dot blot analysis relative to control
[10] = target: Amyloid-beta precursor protein (Homo sapiens) (UniProt P05067); assay: Inhibition of agitation-induced amyloid beta (1 to 40) (unknown origin) aggregation assessed as reduction in fibrillar aggregates at 100 uM measured every 30 to 45 mins by dot blot analysis
[11] = target: Amyloid-beta precursor protein (Homo sapiens) (UniProt P05067); assay: Inhibition of agitation-induced amyloid beta (1 to 40) (unknown origin) aggregation at 100 uM measured every 45 mins by thioflavin T based fluorometric assay
[12] = target: Amyloid-beta precursor protein (Homo sapiens) (UniProt P05067); assay: Inhibition of amyloid beta (1 to 40) (unknown origin) aggregation assessed as decrease in size of protein aggregation at equilibrium at 100 uM after 24 hrs by uranyl acetate staining based transmission electron microscopic analysis

| inhibition [1] [%] | inhibition [2] | inhibition [3] | inhibition [4] | inhibition [5] | inhibition [6] [%] | fold change (FC) [7] | fold change (FC) [8] | fold change (FC) [9] | inhibition [10] [%] | inhibition [11] [%] | inhibition [12] | Compound |
| --- | --- | --- | --- | --- | --- | --- | --- | --- | --- | --- | --- | --- |
| 72.6 | Active | Active | Active | Active | 85.6 | – | – | – | – | – | – | CCCN(CC(=O)N(CCC)CC(=O)N(CC(=O)N(CC(=O)N(CCC)CC(=O)N(CC(=O)N(CC(N)=O)Cc1ccccc1)Cc1ccccc1)Cc1ccccc1)Cc1ccccc1)C(=O)CNCCCCN (H-[Nlys][NPrGly][NPrGly][Nphe][Nphe][NPrGly][Nphe][Nphe]-NH2) |
| 50.5 | Active | Active | – | – | 76.9 | 2.2 | – | – | – | – | – | CC[C@H](C)NCC(=O)N(CC(=O)N(CC(=O)N(CC(=O)N(CC(=O)N(CCCCN)CC(=O)N(CC(=O)N(CC(N)=O)[C@@H](C)c1ccccc1)[C@@H](C)CC)[C@@H](C)CC)[C@@H](C)c1ccccc1)[C@@H](C)c1ccccc1)[C@@H](C)c1ccccc1 (H-[N(1S-Me-propyl)Gly][Nspe][Nspe][Nspe][N(1S-Me-propyl)Gly][Nlys][N(1S-Me-propyl)Gly][Nspe]-NH2) |
| 46 | Active | Active | – | – | 83.1 | 2.7 | < 0.31 | < 0.5 | 63.7 | 81.2 | Active | CC[C@H](C)N(CC(=O)N(CC(=O)N(CC(=O)N(CC(=O)N(CC(=O)N(CC(=O)N(CC(N)=O)[C@@H](C)c1ccccc1)[C@@H](C)c1ccccc1)[C@@H](C)CC)[C@@H](C)c1ccccc1)[C@@H](C)c1ccccc1)[C@@H](C)CC)C(=O)CNCCCCN (H-[Nlys][N(1S-Me-propyl)Gly][N(1S-Me-propyl)Gly][Nspe][Nspe][N(1S-Me-propyl)Gly][Nspe][Nspe]-NH2) |
